Patent US20030114357A1, “Methods related to the A-C repeat Z-sequence upstream from the aldose reductase gene” (priority 2001, published 2003)

How the values were obtained:
[1] = system: subjects with painful, symmetrical polyneuropathy; test: Composite neuroelectrophysiology (NE) parameter (modified O'Brien score), double-blind study placebo vs zopolrestat, 12 week change; format: in vivo, human; conditions: placebo vs combined treatment groups (250 and 500 mg zopolrestat dose)
Source text: (§1) Diabetic neuropathy, a complication arising from diabetes mellitus, is an example of conditions that are mediated by having at least one allele of the (A-C)n repeat Z sequence associated with the aldose reductase gene wherein the value of n is less than 24. […] Such evaluation may be performed by measuring changes in nerve conduction velocity (NCV) in the following nerves: median motor, ulnar sensory, median sensory (both distal and proximal segments), peroneal motor and sural sensory. Testing is performed prior to the initiation of administration of the Agent and one or more times thereafter. An exemplary schedule for neuroelectrophysiology evaluation is prior to initiation of administration of the Agent and at weeks 12, 24 and 52 following initiation of administration.
(§2) Tables 1 and 2 illustrate the effect of administration of the aldose reductase inhibitor, zopolrestat, on NCV of subjects having one and two alleles of the Z sequence having less than 24 A-C repeats. […] The NCV results from Tables 1 and 2 where obtained according to the protocol described in Example 2 of the General Experimental Procedures.
Composite NE parameter is calculated according to the technique described in O'Brien, P. C., Biometrics, 40, 1079-1087 (1984). For ease of interpretation, the standard composite NE parameter of O'Brien is slightly modified for Tables 1 and 2. The standard O'Brien method would give values of 0 to 1. For the modified O'Brien score, the standard O'Brien value is reduced by 0.5 to give a value in the range of −0.5 to 0.5 with an expected value of 0. Values lower than 0 correspond to an overall composite NE decrease relative to the entire patient population, while values greater than 0 correspond to a relative increase.
(§3) The terms “1 short” and “2 short” as used in Tables 1 and 2 refers to the number of alleles found in each subject where n has a value of less than 24 for the (A-C)n repeat Z sequence. “1 short” refers to subjects having only one allele wherein n is less than 24. “2 short” refers to subjects having two alleles wherein n is less than 24. […]

[2] = system: subjects with painful, symmetrical polyneuropathy; test: Peroneal motor nerve conduction velocity (NCV), double-blind study placebo vs zopolrestat, 12 week change; format: in vivo, human; conditions: placebo vs combined treatment groups (250 and 500 mg zopolrestat dose)
Source text: as §1, §2, §3
Nerve Conduction Velocity (“NCV”) is defined as the maximal speed in which Compound Action Potentials are propagated within a nerve, generally reflecting the activity in the fastest and largest neurons and calculated in meters per second by dividing distance in mm by Latency. […]
3. […] Skin temperature is measured prior to and at the conclusion of testing at sites midway between the stimulating and recording electrodes for each limb. Temperature is monitored and adjusted during testing using either a feedback controlled infrared radiant heater, a water bath or a temperature controlled blanket wrap. […]

O=C(O)Cc1nn(Cc2nc3cc(C(F)(F)F)ccc3s2)c(=O)c2ccccc12 [zopolrestat]
Composite NE Parameter (modified) 12 Week Change Mean Treatment Effect ([1]; Group 1 Short (only one Z-sequence allele n<24)): 0.04
Composite NE Parameter (modified) 12 Week Change Mean Treatment Effect ([1]; Group 2 Short (two Z-sequence alleles n<24)): 0.09
Composite NE Parameter (modified) 12 Week Change Mean Treatment Effect ([1]; Group Combined, range -0.5 to 0.5): 0.07
Peroneal Motor 12 Week Change Mean Treatment Effect ([2]; Group 1 Short (subjects with only one Z-sequence allele n<24)): 0.22
Peroneal Motor 12 Week Change Mean Treatment Effect ([2]; Group 2 Short (subjects with two Z-sequence alleles n<24)): 2.35
Peroneal Motor 12 Week Change Mean Treatment Effect ([2]; Group Combined (1 short + 2 short Z-sequence alleles, n<24), NCV, calculated in meters per second): 1.63
